In EP1243581A1, “Pyridinium compounds useful for the treatment of AGE-related diseases” (Torrent Pharmaceuticals Ltd, priority 2001, dated 2002):

Experiments:
rat model of diabetes [1] = assay: In-vivo screening: creatinine clearance in STZ-induced diabetic rats; details: b.i.d., 8 weeks, after 12 weeks of STZ diabetes, versus untreated diabetic group
Experimental: (§1) The test compounds were studied for their beneficial effects on diabetic neuropathy and nephropathy in a rat model of diabetes. The rats were divided into three groups. The first group consisted of age matched untreated non-diabetic animals. The second group consisted of diabetic controls and the third group was the diabetic group treated with the test compound. Each treatment group had its own corresponding control and diabetic groups. The second and third groups were treated with Streptozotocin (STZ) at 60mg/kg for the induction of diabetes. After completion of 12 weeks of diabetes the rats were treated with the test compound daily (doses shown in table) for a period of 8 weeks. At the end of the treatment the creatinine clearances and nerve conduction velocities (NCV) of the animals were estimated. Creatinine clearances of the rats were estimated as follows Creatinine clearance =(Concentration of creatinine in the urine)/(Concentration of creatinine in the blood.)x ml urine passed/minute [formula]
The creatinine clearance in untreated diabetic group was compared with the treated group and the percentage improvements are shown in the Table 3.

AGE-BSA = biological target: T1, AGE-BSA (Bos taurus, UniProt P02769); assay: In-vitro screening for AGE-breaking activity (ELISA on 16 weeks AGE-BSA); assay type: biochemical, bovine; details: for % breakage of AGE-BSA crosslinks at 5000 µM: Concentration 5 mM
T1 construct: Bovine serum albumin (fraction V) (BSA); from tissue; host or cells: bovine serum (fraction V albumin)
Experimental: • Materials: • Bovine serum albumin (fraction V) (BSA) • Glucose, analytical grade • Phosphate buffered saline (PBS) • Equipment: • Microplate ELISA Reader - Spectramax Plus (Molecular Devices, USA) • Microplate washer, (Bio -Tec Instruments, USA) • pH meter Methods of experiment: Elisa (Enzyme Linked Immunosorbent Assay) 160 mg/ml of protein, bovine serum albumin, BSA and 1.6M glucose sugar were dissolved in phosphate buffered saline, PBS. Sodium azide was added at 0.02% concentration as a preservative. The solution was filtered asceptically through a 0.22 µM filter and kept for aging at 37°C for 16 weeks. After 16 weeks the solution was dialyzed against PBS, aliquoted and stored at - 20°C.
To determine the AGE breaking activity, 10µg/ml of the 16 weeks AGE-BSA was incubated with different concentrations of the test compounds at 37°C for 24 hours and AGE breaking activity of the test compounds by ELISA was determined. […] Different concentrations of 16 weeks AGE-BSA were coated on a microtitre plate as standard. Each concentration is coated in triplicates. • 2. The test samples were coated on microtitre plate at a concentration of 5 ng. to 20 ng per well in triplicates. • 3. The plate was incubated at 37°C for one hour. • 4. After incubation the plate was washed with PBST (PBS with 0.05% Tween 20). • 5. Blocking with 5% skimmed milk in PBS at 37°C for one hour was done. • 6. The plate was washed with PBST. • 7. Primary antibody against AGE-BSA was added and the plate is incubated at 37°C for one hour. • 8. The plate was washed with PBST • 9. Secondary antibody anti rabbit HRPO (Horse-Radish Per Oxidase) conjugate was added and the plate is incubated at 37°C for one hour. • 10. The plate was washed with PBST. • 11. Colour development with OPD (orthophenylenediamine dihydrochloride) and hydrogen peroxide was done. • 12. OD (optical density) at (450nm reading - 620nm reading) was measured after incubation at 37°C for 15 minutes with Microplate ELISA Reader.
The breaker activity of the compounds were determined by the following formula: % Breaker activity =(OD450-620 Control - OD450-620 Test)/(OD450-620 Control)x 100 [formula]

rat model of diabetes [2] = assay: In-vivo screening: nerve conduction velocity in STZ-induced diabetic rats; details: b.i.d., 8 weeks, after 12 weeks of STZ diabetes
Experimental: as §1, with “Creatinine clearances of the rats were estimated as follows Creatinine clearance =(Concentration of creatinine in the urine)/(Concentration of creatinine in the blood.)x ml urine passed/minute [formula]” left out
The nerve conduction velocity was measured using a modified method of Biro et al 1998. […] Electromyograms (EMG's) recorded from the plantar muscles consisted of two components: (l) the short latency direct motor response (M) and the monosynaptically elicited long-latency sensory response (H, Hoffmann reflex). Latency and the duration of the M responses were measured and the motor nerve conduction velocity (MNCV) was calculated as follows : MNCV =(Distance between the sciatic and tibial stimulation points.)/(Differences of the latency for Msciatic and Mtibial) [formula] […]

[3] = 10µg/ml 16 weeks AGE-BSA, 37°C, 24 hours

T1 sequence (P02769 25-607): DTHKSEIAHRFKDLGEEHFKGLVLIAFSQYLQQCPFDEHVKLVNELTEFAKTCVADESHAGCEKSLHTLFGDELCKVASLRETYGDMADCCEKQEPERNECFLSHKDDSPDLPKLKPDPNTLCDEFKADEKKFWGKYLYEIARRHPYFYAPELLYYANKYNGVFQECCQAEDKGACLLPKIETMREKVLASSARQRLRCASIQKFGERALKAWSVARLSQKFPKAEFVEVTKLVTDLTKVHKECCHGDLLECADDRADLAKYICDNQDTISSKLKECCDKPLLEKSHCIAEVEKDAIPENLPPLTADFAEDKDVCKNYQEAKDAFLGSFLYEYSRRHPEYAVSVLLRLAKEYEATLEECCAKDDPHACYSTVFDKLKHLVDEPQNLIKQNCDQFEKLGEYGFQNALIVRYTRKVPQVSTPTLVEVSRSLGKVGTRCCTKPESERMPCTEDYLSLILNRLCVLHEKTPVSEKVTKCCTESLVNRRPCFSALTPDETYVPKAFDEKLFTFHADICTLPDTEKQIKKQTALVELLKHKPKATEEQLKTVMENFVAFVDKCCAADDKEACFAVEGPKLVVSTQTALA

With `O=C(NNC(=O)c1ccc[n+](CC(=O)c2cccs2)c1)c1ccc[n+](CC(=O)c2cccs2)c1` [Compound 15, N,N'-bis [3-carbonyl-1-(2-thien-2'-yl-2-oxoethyl)pyridinium] hydrazine dichloride] the “% Increase in creatinine clearance” value (rat model of diabetes [1]; 7.5 mg/kg) was 103.0%, the % breakage of AGE-BSA crosslinks at 5000 µM (AGE-BSA; [3]) was 20% and the “% Increase in the NCV” value (rat model of diabetes [2]; 7.5 mg/kg) was 60.0%.

With `O=C(C[n+]1cccc(C(=O)NNC(=O)c2ccc[n+](CC(=O)NC3CC3)c2)c1)NC1CC1` [Compound 21, N,N'-bis-[3-carbonyl-1-(2-cyclopropylamino-2-oxoethyl)pyridinium] hydrazine dichloride] the “% Increase in creatinine clearance” value (rat model of diabetes [1]; 6.0 mg/kg) was 5.0%, the % breakage of AGE-BSA crosslinks at 5000 µM (AGE-BSA; [3]) was 22.8% and the “% Increase in the NCV” value (rat model of diabetes [2]; 6.0 mg/kg) was 58.4%.

`O=C(C[n+]1cccc(C(=O)NNc2ccccc2)c1)Nc1ccccc1` [Compound 47, 1-(2-phenylamino-2-oxoethyl)-3-(phenyl hydrazinocarbonyl) pyridinium chloride] was tested, and the inhibition at 2500 µM (AGE-BSA; read-out: % Breakage) was 68.3%.

In the case of `O=C(C[n+]1ccc(C(=O)NCCOC(=O)c2ccccc2)cc1)Nc1ccccc1` [Compound 48, 1-(2-phenylamino-2-oxoethyl)-4-[2-(benzoyloxy)ethylaminocarbonyl] pyridinium chloride], the inhibition at 10000 µM (AGE-BSA; read-out: % Breakage) was 19.1%.

Compound `CS(=O)(=O)NNC(=O)c1ccc[n+](CC(=O)c2ccc([N+](=O)[O-])s2)c1` [Compound 49, 1-2-(5-nitro-thien-2-yl)-2-oxoethyl)-3-(methanesulfonyl hydrazino carbonyl) pyridinium chloride] has a % breakage of AGE-BSA crosslinks at 1000 µM (AGE-BSA; Concentration 1 mM, 10µg/ml 16 weeks AGE-BSA, 37°C, 24 hours) of 42%.

With `O=C(NNS(=O)(=O)C(F)(F)F)c1ccc[n+](CC(=O)c2cccs2)c1` [Compound 50, 1-(2-thien-2'-yl-2-oxoethyl)-3-(trifluoromethanesulfonyl hydrazinocarbonyl) - pyridinium bromide] the % breakage of AGE-BSA crosslinks at 10000 µM (AGE-BSA; Concentration 10 mM, 10µg/ml 16 weeks AGE-BSA, 37°C, 24 hours) was 92.6%.

In the case of `O=C(C[n+]1ccsc1)c1ccccc1` [PTB, N- phenacyl thiazolium bromide, reference compound], the inhibition at 10000 µM (AGE-BSA; read-out: % Breakage) was 27% and the inhibition at 20000 µM (AGE-BSA; read-out: % Breakage) was 47%.
